Experimental data as given in US8288111B2 (Abbott Laboratories, priority 2007, dated 2012).

Legend:
[1] = test system: anti-CsA monoclonal antibody; assay: Abbott AxSYM CsA immunoassay (FPIA) cross-reactivity; type: binding, mouse; conditions: 200 ng/mL cyclosporine; metabolite 250 ng/mL
Experimental: (§1) Antibody. The anti-CsA monoclonal antibody used in the […]® assay is immobilized on Goat Anti-Mouse (GAM) antibody coated magnetic microparticles. The same anti-CsA antibody is used in soluble form in the Abbott TDx and AxSYM® assays (Abbott Laboratories, Abbott Park, Ill.). Soluble mouse anti-CsA antibody is added directly to GAM microparticles and non-covalent binding occurs by antibody-mediated binding. GAM antibody is passively bound to magnetic polystyrene microparticles and then treated with a water-soluble carbodiimide to fix the antibody on the particle. GAM particles can be prepared using ordinary skill in the art.
(§2) FPIA test methods. Abbott TDx Monoclonal and AxSYM® immunoassays were measured on specimens and calibrators using procedures described in the package inserts. Specimens were extracted with a combination of saponin, organic solvent and Zinc sulfate and precipitated protein was centrifuged down. The clear supernatant was tested using assay reagents (Tracer, Antibody and Assay Diluent). However, in Example 4, the different extraction (pretreatment) methods of TDx and AxSYM® were employed, but all results were generated on […]®.
Cross-reactivities for AM9 (500 ng/mL) were 12.6% for AxSYM®, 25% for CEDIA, and 6% for EMIT.

[2] = test system: anti-CsA monoclonal antibody; assay: Abbott TDx Monoclonal CsA immunoassay (FPIA) cross-reactivity; type: binding, mouse; conditions: 200 ng/mL cyclosporine; metabolite 250 ng/mL
Experimental: as §1, §2

cyclosporine antibody = assay: Dade RxLFlex cyclosporine assay cross-reactivity; type: binding; conditions: 200 ng/mL cyclosporine; metabolite 1000 ng/mL
[3] = times greater than cyclosporine CsA; cited from earlier work

Row | SMILES | Abbott AxSYM cross-reactivity [1] | Abbott TDx cross-reactivity [2] | Dade RxLFlex cross-reactivity (cyclosporine antibody) | in vivo potency relative to cyclosporine CsA [3]
1 | CC[C@@H]1NC(=O)[C@H]([C@H](O)[C@H](C)C/C=C/CO)N(C)C(=O)[C@H](C(C)C)N(C)C(=O)[C@H](CC(C)C)N(C)C(=O)[C@H](CC(C)(C)O)N(C)C(=O)[C@@H](C)NC(=O)[C@H](C)NC(=O)[C@H](CC(C)C)N(C)C(=O)[C@H](C(C)C)NC(=O)[C@H](CC(C)C)N(C)C(=O)CN(C)C1=O [AM19] | not statistically significant | not statistically significant | 2-3% | 
2 | C=CC[C@@H]1/C=C(\C)C[C@H](C)C[C@H](OC)[C@H]2O[C@@](O)(C(=O)C(=O)N3CCCC[C@H]3C(=O)O[C@H](/C(C)=C/[C@@H]3CC[C@@H](O)[C@H](OC)C3)[C@H](C)[C@@H](O)CC1=O)[C@H](C)C[C@@H]2OC [Tacrolimus, tacrolimus] |  |  |  | 50-100 times
